Experimental data taken from patent US5091539A, “Azolyl cycloalkanol derivatives and agricultural fungicides” (Shionogi & Co., Ltd., priority 1984, dated 1992).

Test system: Sphaerotheca fuliginea
Test: Control test to powdery mildew of cucumber (foliar and soil treatment)
Assay type: in vivo
Settings: for Protective Index, Foliar Treatment / Protective Index, Soil Treatment: first Table 4, 125 ppm, 14 days; for Foliar Treatment, Curative Effect / Foliar Treatment, Protective Effect: index 0-10
Procedure: (1) Seeds of cucumber (Cultivar: Matsukaze) were sown in a pot of 9 cm in diameter and the pots were kept in a green house until the plant was grown for 2-3 leaf stage. The first leaf was sprayed with, (i) 3 ml each of solutions containing the test compound at the prescribed concetrations and dried by the air (foliar treatment). Inoculation of spore suspension of Sphaerotheca fuliginea by spraying was practised 2 days before the treatment (curative effect) or 1 day after the treatment (protective effect). Alternatively, (ii) 5 ml of the solution was applied at the root of the seedlings (soil treatment). The pots were kept in a greenhouse for 2 days and inoculation was practised in the same manner noted above. (iii) After sprayed with 3 ml of a solution of the test compound at a concentration of 125 ppm and dried by the air, the treated pots were set in a greenhouse. Untreated pots were placed next to the treated pots. Those treated and untreated plants were inoculated with spore suspension. Protective effect of the test compounds by vapor was thus checked. The effect was examined 14 days after the inoculation of the spores.
0: Disease sign is observed on the whole leaf.
3: Disease sign is observed on the leaf in about 50%.
5: Disease sign is observed on the leaf in about 30%.
7: Disease sign is observed on the leaf in about 20%.
9: a little disease sign is observed.
(1) Test methods and evaluation are the same as those in Tests 2, 4 and 6.

Compound | Protective Index, Foliar Treatment | Protective Index, Soil Treatment | Foliar Treatment, Curative Effect (second Table 4, 0.5 ppm) | Foliar Treatment, Protective Effect (second Table 4, 0.5 ppm) | Foliar Treatment, Curative Effect (second Table 4, 2.0 ppm) | Foliar Treatment, Protective Effect (second Table 4, 2.0 ppm) | Foliar Treatment, Curative Effect (second Table 4, 7.8 ppm) | Foliar Treatment, Protective Effect (second Table 4, 7.8 ppm) | Foliar Treatment, Curative Effect (second Table 4, 31.3 ppm) | Foliar Treatment, Protective Effect (second Table 4, 31.3 ppm)
O[C@@]1(Cc2ccc(Cl)cc2Cl)CCCC[C@H]1n1cncn1 (relative stereo) [Compound 3, cis-1-(2,4-dichlorobenzyl)-2-(1,2,4-triazol-1-yl)cyclohexanol] | 10 | 10 |  |  |  |  |  |  |  | 
O[C@@]1(Cc2ccc(Cl)cc2)CCCCC[C@H]1n1cncn1 (relative stereo) [Compound 5, cis-1-(4-chlorobenzyl)-2-(1,2,4-triazol-1-yl)cycloheptanol] | 10 | 3 (Disease sign is observed on the leaf in about 50%.) |  |  |  |  |  |  |  | 
O[C@@]1(c2cccs2)CCCC[C@H]1n1ccnc1 (relative stereo) [Compound 6, cis-1-(2-thienyl)-2-imidazolylcyclohexanol] | 10 | 0 |  |  |  |  |  |  |  | 
O[C@@]1(c2ccc(F)cc2)CCCCC[C@H]1n1ccnc1 (relative stereo) [Compound 23] |  |  | 0 | 0 | 3 (Disease sign is observed on the leaf in about 50%.) | 5 (Disease sign is observed on the leaf in about 30%.) | 10 | 10 | 10 | 10
O[C@@]1(c2ccc(Cl)cc2)CCCC[C@H]1n1ccnc1 (relative stereo) [Compound 26] |  |  | 0 | 0 | 7 (Disease sign is observed on the leaf in about 20%.) | 3 (Disease sign is observed on the leaf in about 50%.) | 9 | 9 | 10 | 10
O[C@@]1(c2ccc(Cl)cc2)CCCCC[C@H]1n1ccnc1 (relative stereo) [Compound 27] |  |  | 0 | 0 | 5 (Disease sign is observed on the leaf in about 30%.) | 3 (Disease sign is observed on the leaf in about 50%.) | 10 | 9 | 10 | 10
O[C@@]1(c2ccc(F)cc2)CCCC[C@H]1n1ccnc1 (relative stereo) [Compound 29] |  |  | 0 | 0 | 3 (Disease sign is observed on the leaf in about 50%.) | 3 (Disease sign is observed on the leaf in about 50%.) | 9 | 9 | 10 | 10
